Measurements from ChEMBL document CHEMBL5375956, “Discovery of Pyrazolo[1,5-a]pyrimidine Derivative as a Novel and Selective ALKBH5 Inhibitor for the Treatment of AML” (J Med Chem, 2023).
Calls of active or inactive are those of the source. The calls are words filed in the database; no cut-off is given here.

How the values were obtained:
[1] = system: MV4-11; test: Antitumor activity against human MV4-11 cells xenografted in nude mouse assessed as tumor growth inhibition at 40 mg/kg, ip treated every day for 14 days relative to control; format: functional; settings: MV4-11, 336 h, time 14 day, read-out: TGI
[2] = biological target: RNA demethylase ALKBH5 (Homo sapiens, UniProt Q6P6C2); test: Inhibition of ALKBH5 (66 to 292 residues)(unknown origin) expressed in Escherichia coli BL21(DE3) using 5'-TAGACATTGCCATTCTCGATAGG(m6A)-TCCGGTCAAACCTAGACGAATTCCA-3' as substrate upto 100 uM incubated for 2 hrs in presence of 2-OG by restriction endonuclease digestion assay
[3] = system: MV4-11; test: Antitumor activity against human MV4-11 cells xenografted in nude mouse assessed as tumor growth inhibition at 20 mg/kg, ip treated every day for 14 days relative to control; format: functional; settings: MV4-11, 336 h, time 14 day, read-out: TGI

RNA demethylase ALKBH5, sequence (Q6P6C2 2-394 limits assumed): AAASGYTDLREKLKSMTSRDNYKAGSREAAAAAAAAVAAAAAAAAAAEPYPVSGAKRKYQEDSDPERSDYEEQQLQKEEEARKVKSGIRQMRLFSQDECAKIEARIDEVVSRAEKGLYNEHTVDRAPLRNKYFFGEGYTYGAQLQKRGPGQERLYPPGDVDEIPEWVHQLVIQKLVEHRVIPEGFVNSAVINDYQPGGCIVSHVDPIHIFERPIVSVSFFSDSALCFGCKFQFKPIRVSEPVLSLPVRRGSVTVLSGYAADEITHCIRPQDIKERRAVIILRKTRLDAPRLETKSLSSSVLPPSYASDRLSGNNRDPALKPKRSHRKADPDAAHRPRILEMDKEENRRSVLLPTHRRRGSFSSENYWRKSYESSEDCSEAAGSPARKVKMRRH

- inhibition [2]: Active
SMILES: O=C(OCc1ccc(C(F)(F)F)cc1)c1ccc(-c2cc3ncc(C(=O)c4c(O)ccc([N+](=O)[O-])c4O)cn3n2)cc1
- inhibition in vivo at 40 mg/kg [1]: 70.5%
- inhibition in vivo at 20 mg/kg [3]: 68.9%
